Laboratory results as given in ChEMBL document CHEMBL3885861, “Open TG-GATES”.

Species: Rattus norvegicus
Experiment: Open TG-GATES - Regimen: Daily Repeat
Assay type: toxicity, organism-based, Sprague-Dawley
Parameters: regimen Daily Repeat, gender Male, age 6 weeks
Conditions: in vivo, po, route gavage; for APTT / Bas / Eos / Fbg / Hb / Ht / Lym / MCH / MCHC / MCV / Mono / Neu / PT / Plat / RBC / Ret / WBC: tissue Blood; for KIDNEY_L / KIDNEY_R / KIDNEY_TOTAL: tissue Kidney; for LIVER: tissue Liver; for ALT / AST / BUN / CRE / Ca / DBIL / GLC / IP / K / LDH / Na / PL / RALB / TBIL / TC / TG / TP / gamma-GTP / ALP: tissue Plasma
[1] = 15 mg/kg, 72 h, dose level Low, time 3 day
[2] = 15 mg/kg, […], dose level Low, time 7 day
[3] = 15 mg/kg, […], dose level Low, time 14 day
[4] = 15 mg/kg, […], dose level Low, time 28 day

Oc1ncnc2[nH]ncc12 [ALLOPURINOL]
TERMINAL_BW [1]: 242.3 g
APTT [1]: 16.5 s
Bas [1]: 0%
Eos [1]: 0.8%
Fbg [1]: 229.2 mg/dL
Hb [1]: 13.9 g/dL
Ht [1]: 41.8%
Lym [1]: 81.2%
MCH [1]: 21.5 pg
MCHC [1]: 33.3%
MCV [1]: 64.8 fL
Mono [1]: 6%
Neu [1]: 11.4%
PT [1]: 12.1 s
Plat [1]: 91.2 x10_4/uL
RBC [1]: 646.4 x10_4/ul
Ret [1]: 7%
WBC [1]: 93.9 x10_2/uL
KIDNEY_L [1]: 1 g
KIDNEY_R [1]: 1 g
KIDNEY_TOTAL [1]: 2.1 g
LIVER [1]: 11.7 g
ALT [1]: 33.4 IU/L
AST [1]: 67.4 IU/L
BUN [1]: 18.4 mg/dL
CRE [1]: 0.5 mg/dL
Ca [1]: 11.3 mg/dL
DBIL [1]: 0.002 mg/dL
GLC [1]: 193 mg/dL
IP [1]: 8.4 mg/dL
K [1]: 4.8 meq/L
LDH [1]: 85.2 IU/L
Na [1]: 139.2 meq/L
PL [1]: 162.4 mg/dL
RALB [1]: 3.9 g/dL
TBIL [1]: 0.3 mg/dL
TC [1]: 81.4 mg/dL
TG [1]: 111 mg/dL
TP [1]: 6.1 g/dL
gamma-GTP [1]: 1.6 IU/L
TERMINAL_BW [2]: 256.8 g
TERMINAL_BW [3]: 323.2 g
TERMINAL_BW [4]: 383.9 g
APTT [2]: 16.7 s
Bas [2]: 0%
Eos [2]: 1%
Fbg [2]: 246.6 mg/dL
Hb [2]: 14.8 g/dL
Ht [2]: 44.6%
Lym [2]: 83.2%
MCH [2]: 21.1 pg
MCHC [2]: 33.2%
MCV [2]: 63.5 fL
Mono [2]: 3.4%
Neu [2]: 12.6%
PT [2]: 11.8 s
Plat [2]: 112.6 x10_4/uL
RBC [2]: 702.2 x10_4/ul
Ret [2]: 4.6%
WBC [2]: 108.6 x10_2/uL
APTT [3]: 16.8 s
Bas [3]: 0%
Eos [3]: 0.8%
Fbg [3]: 242.8 mg/dL
Hb [3]: 14.6 g/dL
Ht [3]: 44%
Lym [3]: 81%
MCH [3]: 20.5 pg
MCHC [3]: 33.2%
MCV [3]: 61.7 fL
Mono [3]: 4.8%
Neu [3]: 13.4%
PT [3]: 11.7 s
Plat [3]: 111.9 x10_4/uL
RBC [3]: 714 x10_4/ul
Ret [3]: 4.4%
APTT [4]: 16.6 s
Bas [4]: 0%
Eos [4]: 1%
Fbg [4]: 225.8 mg/dL
Hb [4]: 15.4 g/dL
Ht [4]: 46%
Lym [4]: 83.8%
MCH [4]: 19.4 pg
MCHC [4]: 33.6%
MCV [4]: 57.8 fL
Mono [4]: 2.8%
Neu [4]: 12.4%
PT [4]: 12.1 s
RBC [4]: 795.8 x10_4/ul
Ret [4]: 2.4%
WBC [4]: 167 x10_2/uL
KIDNEY_L [2]: 1.2 g
KIDNEY_R [2]: 1.2 g
KIDNEY_TOTAL [2]: 2.3 g
KIDNEY_L [3]: 1.3 g
KIDNEY_R [3]: 1.3 g
KIDNEY_TOTAL [3]: 2.6 g
KIDNEY_L [4]: 1.4 g
KIDNEY_R [4]: 1.4 g
KIDNEY_TOTAL [4]: 2.9 g
LIVER [2]: 11.7 g
LIVER [3]: 15.3 g
LIVER [4]: 16.6 g
ALP [2]: 753 IU/L
ALT [2]: 25.2 IU/L
AST [2]: 56.6 IU/L
BUN [2]: 21.6 mg/dL
CRE [2]: 0.6 mg/dL
Ca [2]: 11.3 mg/dL
DBIL [2]: 0.012 mg/dL
GLC [2]: 192.6 mg/dL
IP [2]: 8.6 mg/dL
K [2]: 4.5 meq/L
Na [2]: 137.8 meq/L
PL [2]: 156 mg/dL
RALB [2]: 4.2 g/dL
TBIL [2]: 0.3 mg/dL
TC [2]: 81.2 mg/dL
TG [2]: 85.2 mg/dL
TP [2]: 6.2 g/dL
gamma-GTP [2]: 2.4 IU/L
ALP [3]: 823.2 IU/L
ALT [3]: 27.2 IU/L
AST [3]: 56.8 IU/L
BUN [3]: 19.4 mg/dL
CRE [3]: 0.6 mg/dL
DBIL [3]: 0 mg/dL
GLC [3]: 185.4 mg/dL
IP [3]: 7.5 mg/dL
K [3]: 4.4 meq/L
LDH [3]: 74.8 IU/L
Na [3]: 138.8 meq/L
PL [3]: 158.6 mg/dL
RALB [3]: 3.9 g/dL
TBIL [3]: 0.2 mg/dL
TC [3]: 69.8 mg/dL
TG [3]: 161.6 mg/dL
TP [3]: 6.2 g/dL
gamma-GTP [3]: 2 IU/L
ALP [4]: 525.8 IU/L
ALT [4]: 29.4 IU/L
AST [4]: 59.2 IU/L
BUN [4]: 20.6 mg/dL
CRE [4]: 0.6 mg/dL
Ca [4]: 11 mg/dL
DBIL [4]: 0.014 mg/dL
GLC [4]: 188.4 mg/dL
IP [4]: 6.9 mg/dL
K [4]: 4.8 meq/L
LDH [4]: 74.4 IU/L
Na [4]: 139.6 meq/L
PL [4]: 153.4 mg/dL
RALB [4]: 4.1 g/dL
TBIL [4]: 0.3 mg/dL
TC [4]: 70 mg/dL
TG [4]: 160.6 mg/dL
TP [4]: 6.6 g/dL
gamma-GTP [4]: 2.8 IU/L
TERMINAL_BW (50 mg/kg, 72 h, dose level Middle, time 3 day): 239.5 g
